Measurements published in patent US4046904A, “Novel penicillin, and its preparation and use” (Sumitomo Chemical Company, Limited, priority 1975, dated 1977).
Converted amounts (≈) assume the structure as drawn.

How the values were obtained:
Klebsiella pneumoniae [1] = assay: MIC, nutrient broth dilution (Table 2); assay type: cell-based; conditions: Klebsiella pneumoniae strain No. 6, sodium salt
Description: (§1) Note: Compound (I), Compound (A) and Compound (B) were subjected to the test in the form of the sodium salt. For each test, eight male ICR-SLC strain mice were used at each dose level. MIC was determined by the nutrient broth dilution method. In determination of PD50, subcutaneous treatment was carried out twice, i.e. 1 and 4 hours after infection.

Pseudomonas aeruginosa [2] = assay: MIC, nutrient broth dilution (Table 2); assay type: cell-based
Description: as §1

Escherichia coli [3] = assay: MIC, nutrient broth dilution (Table 2); assay type: cell-based; conditions: Escherichia coli strain NIHJ, sodium salt
Description: as §1

Klebsiella pneumoniae [4] = assay: Intraperitoneal infection in mice, median protective dose (Table 2); assay type: in vivo; conditions: sc, subcutaneous, 1 and 4 hours after infection, sodium salt, read-out: PD50
Description: as §1

Pseudomonas aeruginosa [5] = assay: as above; assay type: in vivo; conditions: sc, subcutaneous, 1 and 4 hours after infection, sodium salt, read-out: PD50
Description: as §1

Escherichia coli [6] = assay: as above; assay type: in vivo; conditions: sc, E. coli strain NIHJ, male ICR-SLC mice, subcutaneous, 1 and 4 hours after infection, sodium salt, read-out: PD50
Description: as §1

Klebsiella pneumoniae [7] = assay: Median MIC, clinical isolates, agar-plate dilution (Table 1); assay type: cell-based; conditions: 26 clinical isolates, sodium salt, read-out: Median minimum inhibitory concentration
Description: (§2) Note: Compound (I) and Compound (A) were subjected to the test in the form of the sodium salt. The minimum inhibitory concentration (MIC) was determined using the agar-plate dilution method recommended by Japan Society of Chemotherapy.

Escherichia = assay: as above; assay type: cell-based; conditions: read-out: Median minimum inhibitory concentration
Description: as §2

Serratia = assay: as above; assay type: cell-based; conditions: 6 clinical isolates, sodium salt, read-out: Median minimum inhibitory concentration
Description: as §2

Proteus morganii = assay: as above; assay type: cell-based; conditions: Morganella morganii, 14 clinical isolates, sodium salt, read-out: Median minimum inhibitory concentration
Description: as §2

Staphylococcus aureus [8] = assay: as above; assay type: cell-based; conditions: 37 clinical isolates, sodium salt, read-out: Median minimum inhibitory concentration
Description: as §2

Pseudomonas aeruginosa [9] = assay: as above; assay type: cell-based; conditions: 49 clinical isolates, sodium salt, read-out: Median minimum inhibitory concentration
Description: as §2

Proteus vulgaris = assay: as above; assay type: cell-based; conditions: 7 clinical isolates, sodium salt, read-out: Median minimum inhibitory concentration
Description: as §2

Enterobacter aerogenes = assay: as above; assay type: cell-based; conditions: Klebsiella aerogenes, 8 clinical isolates, sodium salt, read-out: Median minimum inhibitory concentration
Description: as §2

Pseudomonas = conditions: background statement; cited from earlier work
Streptococcus faecalis [10] = assay: Median MIC, clinical isolates, agar-plate dilution (Table 4); assay type: cell-based; conditions: Enterococcus faecalis, 23 strains, agar-plate dilution, sodium salt, read-out: Median minimum inhibitory concentration
Description: (§3) Note: Compound (I) and Compound (C) were subjected to the test in the form of the sodium salt. MIC was determined using the agar-plate dilution method.

Staphylococcus aureus [11] = assay: as above; assay type: cell-based; conditions: 37 strains, agar-plate dilution, sodium salt, read-out: Median minimum inhibitory concentration
Description: as §3

[12] = Acute toxicity in mice, intraperitoneal (Table 9); conditions: mouse, in vivo, ip
Excerpt: The acute toxicity of Compound (I) and Compound (C) in ICR strain mice when administered by intraperitoneal route are shown in Table 9.
(§4) Note: Compound (I) and Compound (C) were subjected to the test in the form of the sodium salt.

[13] = Serum level in mice after subcutaneous administration (Table 7); assay type: in vivo, ICR-SLC strain mice; conditions: mouse, sc, subcutaneous 50 mg/kg, sodium salt
Description: The peak serum concentrations of Compound (I) and Compound (C) in ICR strain mice following subcutaneous administration at 50 mg/kg are shown in Table 7.
Note: Compound (I) and Compound (C) were subjected to the test in the form of the sodium salt. For the test, three male ICR-SLC strain mice were used. The bioassay was carried out according to the disc method using Bacillus subtilis.

Klebsiella pneumoniae [14] = assay: Intraperitoneal infection in mice, median protective dose (Table 5); assay type: in vivo; conditions: sc, K. pneumoniae strain No. 1, male ICR-SLC mice, subcutaneous, 1, 3 and 5 hours after infection, sodium salt, read-out: PD50
Description: (§5) The relative activities of Compound (I) and Compound (C) against various intraperitioneal infections in mice evaluated by the minimum inhibitory concentrations and the means median protective doses (subcutaneously administered) are shown in Table 5.
(§6) Note: Compound (I) and Compound (C) were subjected to the test in the form of the sodium salt. For each test, five male ICR-SLC strain mice were used at each dose level. MIC was determined by the nutrient broth dilution method. In determination of PD50, subsutaneous treatment was carried out three times, i.e. 1, 3 and 5 hours after infection.

Streptococcus faecalis [15] = assay: as above; assay type: in vivo; conditions: Enterococcus faecalis, sc; S. faecalis strain F10; male ICR-SLC mice; subcutaneous, 1, 3 and 5 hours after infection; sodium salt; read-out: PD50
Description: as §5, §6

Staphylococcus aureus [16] = assay: as above; assay type: in vivo; conditions: sc, S. aureus strain A24, male ICR-SLC mice, subcutaneous, 1, 3 and 5 hours after infection, sodium salt, read-out: PD50
Description: as §5, §6

Pseudomonas aeruginosa [17] = assay: as above; assay type: in vivo; conditions: sc, P. aeruginosa strain TS, male ICR-SLC mice, subcutaneous, 1, 3 and 5 hours after infection, sodium salt, read-out: PD50
Description: as §5, §6

Proteus mirabilis = assay: MIC (Table 3); assay type: cell-based; conditions: Proteus mirabilis strain GN2425; sodium salt
Excerpt: The minimum inhibitory concentrations obtained with Compound (I) and Compound (C) against the following organisms representing 6 genera are shown in Table 3.
as §4

Streptococcus faecalis [18] = assay: MIC, nutrient broth dilution (Table 5); assay type: cell-based; conditions: Enterococcus faecalis, Streptococcus faecalis strain F10, sodium salt
Description: as §5, §6

Pseudomonas aeruginosa [19] = assay: MIC, nutrient broth dilution (Table 5); assay type: cell-based; conditions: Pseudomonas aeruginosa strain TS, sodium salt
Description: as §5, §6

[20] = Protein-binding rate in human serum (Table 6); assay type: in vitro ADME; conditions: human, serum, sodium salt
Excerpt: The following data are related to the pharmacokinetic profiles of Compound (I) compared with Compound (C).
as §4

[21] = Urinary excretion rate in rats after intramuscular administration (Table 8); assay type: in vivo, Wistar-HLA strain rats; conditions: rat, urine, im, 20 mg/kg, male rats, intramuscular 20 mg/kg, sodium salt
Description: The urinary excretion rates of Compound (I) and Compound (C) following an intramuscular administration of 20 mg/kg in male Wistar-HLA strain rats are shown in Table 8.
as §4

CC1(C)S[C@@H]2[C@H](NC(=O)[C@H](NC(=O)c3cnccc3O)c3ccc(O)cc3)C(=O)N2[C@H]1C(=O)O [Compound (A), 6-[D-2-(4-hydroxypyridine-3-carbonamido)-2-(p-hydroxyphenyl)acetamido]penicillanic acid, reference compound]
MIC (Klebsiella pneumoniae [1]): 100 mg/L | MIC (Pseudomonas aeruginosa [2]; Pseudomonas aeruginosa strain NC-5, sodium salt): 6.25 mg/L | MIC (Pseudomonas aeruginosa [2]; Pseudomonas aeruginosa strain T, sodium salt): 12.5 mg/L | MIC (Escherichia coli [3]): 12.5 mg/L | ED50 (Klebsiella pneumoniae [4]; K. pneumoniae strain No. 1, male ICR-SLC mice): 100 mg/kg | ED50 (Klebsiella pneumoniae [4]; K. pneumoniae strain No. 6, male ICR-SLC mice): 120 mg/kg | ED50 (Klebsiella pneumoniae [4]; K. pneumoniae strain No. 20, male ICR-SLC mice): > 150 mg/kg | ED50 (Pseudomonas aeruginosa [5]; P. aeruginosa strain NC-5, male ICR-SLC mice): 60 mg/kg | ED50 (Pseudomonas aeruginosa [5]; P. aeruginosa strain T, male ICR-SLC mice): 51 mg/kg | ED50 (Escherichia coli [6]): 3 mg/kg | MIC50 (Klebsiella pneumoniae [7]): 73 mg/L | MIC50 (Escherichia): 14 mg/L (≈ 28.8 µM) | MIC50 (Serratia): > 200 mg/L | MIC50 (Proteus morganii): 50 mg/L | MIC50 (Staphylococcus aureus [8]): 21 mg/L | MIC50 (Pseudomonas aeruginosa [9]): 5 mg/L | MIC50 (Proteus vulgaris): 115 mg/L | MIC50 (Enterobacter aerogenes): 100 mg/L

CC1(C)S[C@@H]2[C@H](NC(=O)C(c3ccccc3)S(=O)(=O)O)C(=O)N2[C@H]1C(=O)O (stereo partly shown) [Sulfocillin]
anti-Pseudomonas activity (Pseudomonas): not sufficiently strong

CC1(C)S[C@@H]2[C@H](NC(=O)[C@H](N)c3ccccc3)C(=O)N2[C@H]1C(=O)O [Ampicillin]
anti-Pseudomonas activity (Pseudomonas): does not exert any appreciable anti-Pseudomonas activity

CC1(C)S[C@@H]2[C@H](NC(=O)C(C(=O)O)c3ccccc3)C(=O)N2[C@H]1C(=O)O (stereo partly shown) [Carbenicillin]
anti-Pseudomonas activity (Pseudomonas): not sufficiently strong

CC1(C)S[C@@H]2[C@H](NC(=O)[C@H](NC(=O)c3cnc4cccnc4c3O)c3ccc(O)cc3)C(=O)N2[C@H]1C(=O)O [Compound (C), 6-[D-2-(4-hydroxy-1,5-naphthyridine-3-carbonamido)-2-(p-hydroxyphenyl)acetamido]penicillanic acid, reference compound]
MIC50 (Streptococcus faecalis [10]): 3.8 mg/L | MIC50 (Staphylococcus aureus [11]): 60 mg/L | LD50 [12]: 3100 mg/kg | concentration at 0.5 h ([13]; 1/2 hr.): 32 µg/mL | concentration at 0.25 h ([13]; 1/4 hr.): 44 µg/mL | concentration at 1 h ([13]; 1 hr.): 8 µg/mL | concentration at 2 h ([13]; 2 hr.): 5 µg/mL | ED50 (Klebsiella pneumoniae [14]): 18 mg/kg | ED50 (Streptococcus faecalis [15]): 6 mg/kg | ED50 (Staphylococcus aureus [16]): 32 mg/kg | ED50 (Pseudomonas aeruginosa [17]): 15 mg/kg | MIC (Proteus mirabilis): 1.56 mg/L | MIC (Streptococcus faecalis [18]): 1.56 mg/L | MIC (Pseudomonas aeruginosa [19]): 3.13 mg/L | fraction unbound ([20]; Ultracentrifugation method): 0.08 | fraction unbound ([20]; Ultrafiltration method): 0.1 | dose excreted at 6 h ([21]; 0-6 hr.): 19.5% | dose excreted at 24 h ([21]; 0-24 hr.): 20% | dose excreted at 24 h ([21]; 6-24 hr.): 0.5%
